# Patent publication US20090227456A1, “Process for Combating Water Polluted By Algae” (priority 2006, published 2009)
# Columns and labels:
# [1] = tested on: polluting algae of the Dianchi water; experiment: Experiments on the shore of polluted lake Dianchi: acidization of the water by carbon dioxide; format: in vivo
# Source text: (§1) Subsequent experiments have verified that the extermination occurred when the pH value of the water is reduced to 5.8 or less. Dead algal remains can be filtered out when acidized polluted water by the new filtering system of aquitransistor/filter, and the filtered water is suitable as source of urban water supply. […] Those discoveries and previous developments were patented to teach the use of carbon dioxide as algicide in environmental rehabilitation of polluted lakes and streams for urban water supply. The two Patent applications are:
# The Dianchi water with pH values ranging up to 9 was reduced to less than 6, and the empirical rate was estimated in experiments to reduce the pH value by three units. The amount of dissolving carbon dioxide into alkaline waters to combate pollution is substantial. To suppress the algal growth in streams, ponds, swimming pools or fish tanks, the quantity of carbon dioxide required is small. The purpose is less to reduce carbon dioxide emission, but to maintain the cleanness of the water body. The growth of algae can be suppressed if the pH of water is maintained at 7, through the dissolution of carbon dioxide in water. The requirement is in the range of 10-100 grams carbon dioxide for one cubic-meter volume of water, depending the atmosphere-water interchange rate, and other factors. […] Since the main expenditure will be acidization, which is about 30$ per ton, the cost of maintaining algae-free swimming pool should be less than a few dollars per week. Very small metal containers for acidization of […] to produce carbon dioxide can be attached to fish tanks. The occasional bubbling of carbon dioxide to neutralize the alkalinity of water would not only be functional, but also fascinating to children owning the pet fish, and to their mother would not have to slave every month to clean up the algal pollution. Where medium or small quantifies of carbon dioxide are required, we recommend the use of carbon dioxide produced by the acidization of carbonates. The by-product CaCl2 is useful, but has little commercial value. […]
# [2] = tested on: green algae, blue-green algae and other polluting algae; experiment: Experiments in Beijing: suppression of algal growth by keeping water pH low; format: in vivo
# Source text: as §1
# The Dianchi water with pH values ranging up to 9 was reduced to less than 6, and the empirical rate was estimated in experiments to reduce the pH value by three units. The amount of dissolving carbon dioxide into alkaline waters to combate pollution is substantial. To suppress the algal growth in streams, ponds, swimming pools or fish tanks, the quantity of carbon dioxide required is small. The purpose is less to reduce carbon dioxide emission, but to maintain the cleanness of the water body. The growth of algae can be suppressed if the pH of water is maintained at 7, through the dissolution of carbon dioxide in water. […] Where medium or small quantifies of carbon dioxide are required, we recommend the use of carbon dioxide produced by the acidization of carbonates. […]
structure (smiles),measurement,setting,value
O=C=O [carbon dioxide],extermination of polluting algae after acidization of the water,[1]; Dianchi lake water acidized by carbon dioxide,all be exterminated
same,empirical rate of CO2 to reduce the pH value by three units,"[1]; Dianchi water, pH up to 9 reduced to less than 6",2 kg CO2 per ton water
same,pH of Dianchi water after treatment,"[1]; starting pH values ranging up to 9, 2 kg CO2 per ton water",less than 6 pH
same,pH value of the water at which extermination occurred,[1]; water acidized by carbon dioxide,≤ 5.8 pH
same,pH value of water at which algal growth is suppressed,[2]; pH kept at this value or below,≤ 7.0 pH
same,carbon dioxide requirement to suppress algal growth (pH maintained at 7),"[2]; streams, ponds, swimming pools or fish tanks, depends on atmosphere-water interchange rate",10-100 grams carbon dioxide for one cubic-meter volume of water
